# ChEMBL document CHEMBL1201862, “PubChem BioAssay data set” (2004)
# Active and inactive are the calls of the source.
# Key:
# [1] = molecular target: Serine/threonine-protein phosphatase PP1-alpha catalytic subunit (Homo sapiens, UniProt P62136); assay: inhibition of protein phosphatase 1 activity – biochemical, fluorescence, dose response (AID 2394)
# [2] = molecular target: T1, Sentrin-specific protease 6 (Homo sapiens, UniProt Q9GZR1); format: functional;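 also: Luminescence-based dose-response confirmatory assay of SENP6 inhibition, following up an ultra-high-throughput screen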
# T1 sequence (Q9GZR1 whole entry): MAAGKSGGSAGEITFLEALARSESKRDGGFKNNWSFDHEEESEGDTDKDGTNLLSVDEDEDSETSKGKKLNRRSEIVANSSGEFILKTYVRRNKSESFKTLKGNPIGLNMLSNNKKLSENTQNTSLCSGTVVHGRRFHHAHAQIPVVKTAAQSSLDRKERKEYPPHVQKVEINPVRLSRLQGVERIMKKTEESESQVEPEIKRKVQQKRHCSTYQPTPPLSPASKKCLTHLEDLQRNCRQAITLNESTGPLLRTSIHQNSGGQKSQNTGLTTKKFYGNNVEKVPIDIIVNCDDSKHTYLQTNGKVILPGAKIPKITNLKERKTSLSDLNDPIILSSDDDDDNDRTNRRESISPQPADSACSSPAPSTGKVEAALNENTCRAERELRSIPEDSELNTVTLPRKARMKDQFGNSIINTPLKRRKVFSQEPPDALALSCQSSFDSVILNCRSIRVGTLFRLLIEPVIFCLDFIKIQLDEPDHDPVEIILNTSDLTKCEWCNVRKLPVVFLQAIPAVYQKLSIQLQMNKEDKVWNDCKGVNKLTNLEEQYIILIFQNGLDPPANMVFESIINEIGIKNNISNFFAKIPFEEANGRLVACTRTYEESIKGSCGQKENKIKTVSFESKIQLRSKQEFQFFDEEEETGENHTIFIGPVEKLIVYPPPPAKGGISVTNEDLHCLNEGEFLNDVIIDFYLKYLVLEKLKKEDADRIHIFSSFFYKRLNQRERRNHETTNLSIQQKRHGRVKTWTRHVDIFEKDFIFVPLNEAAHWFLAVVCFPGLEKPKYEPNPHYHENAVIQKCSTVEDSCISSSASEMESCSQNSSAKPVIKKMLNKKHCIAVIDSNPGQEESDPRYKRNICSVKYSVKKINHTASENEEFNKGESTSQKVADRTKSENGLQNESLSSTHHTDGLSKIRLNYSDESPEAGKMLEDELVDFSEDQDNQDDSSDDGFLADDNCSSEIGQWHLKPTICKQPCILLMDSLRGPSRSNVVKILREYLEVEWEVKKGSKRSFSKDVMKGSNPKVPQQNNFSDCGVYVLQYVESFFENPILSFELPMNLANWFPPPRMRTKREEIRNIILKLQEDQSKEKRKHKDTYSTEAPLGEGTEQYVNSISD
# [3] = molecular target: Serine/threonine-protein phosphatase (Homo sapiens, UniProt Q9BPW0); assay: inhibition of protein phosphatase 5 activity – biochemical, fluorescence, dose response (AID 2395)
# [4] = molecular target: T2, Sentrin-specific protease 8 (Homo sapiens, UniProt Q96LD8); format: functional;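 also: luminescence read-out of SENP8 inhibition, dose-response confirmation following an ultra-high-throughput screen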
# T2 sequence (Q96LD8 whole entry): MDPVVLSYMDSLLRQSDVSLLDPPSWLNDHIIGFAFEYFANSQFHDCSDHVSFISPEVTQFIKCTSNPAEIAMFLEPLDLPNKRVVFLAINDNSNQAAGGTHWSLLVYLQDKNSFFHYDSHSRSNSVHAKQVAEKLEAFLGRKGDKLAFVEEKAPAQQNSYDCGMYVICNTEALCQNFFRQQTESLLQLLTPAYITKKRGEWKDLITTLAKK
# Caspase-3 = molecular target: T3, Caspase-3 (Homo sapiens, UniProt P42574); assay: SAR Analysis of small molecule inhibitors of Sentrin-specific proteases (SENPs) using a Caspase-3 Selectivity assay. [Related pubchem assays (depositor defined):AID2540, AID2599, AID434973, AID489001]; format: functional
# T3 sequence (P42574 whole entry): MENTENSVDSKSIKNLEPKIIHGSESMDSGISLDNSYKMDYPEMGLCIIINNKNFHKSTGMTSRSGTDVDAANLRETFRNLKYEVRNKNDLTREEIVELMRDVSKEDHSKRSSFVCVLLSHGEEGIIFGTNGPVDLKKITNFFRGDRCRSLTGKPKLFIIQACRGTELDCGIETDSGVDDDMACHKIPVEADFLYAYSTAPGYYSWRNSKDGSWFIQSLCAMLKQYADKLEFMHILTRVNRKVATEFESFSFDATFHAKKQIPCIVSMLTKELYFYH
# [5] = molecular target: T4, Alkaline phosphatase, tissue-nonspecific isozyme (Homo sapiens, UniProt P05186); assay: TNAP enzyme inhibition by screening hits, dose response, selectivity assay for mouse IAP inhibitor project, biochemical, human TNAP, uHTS hits (AID 488906); format: functional
# T4 sequence (P05186 whole entry): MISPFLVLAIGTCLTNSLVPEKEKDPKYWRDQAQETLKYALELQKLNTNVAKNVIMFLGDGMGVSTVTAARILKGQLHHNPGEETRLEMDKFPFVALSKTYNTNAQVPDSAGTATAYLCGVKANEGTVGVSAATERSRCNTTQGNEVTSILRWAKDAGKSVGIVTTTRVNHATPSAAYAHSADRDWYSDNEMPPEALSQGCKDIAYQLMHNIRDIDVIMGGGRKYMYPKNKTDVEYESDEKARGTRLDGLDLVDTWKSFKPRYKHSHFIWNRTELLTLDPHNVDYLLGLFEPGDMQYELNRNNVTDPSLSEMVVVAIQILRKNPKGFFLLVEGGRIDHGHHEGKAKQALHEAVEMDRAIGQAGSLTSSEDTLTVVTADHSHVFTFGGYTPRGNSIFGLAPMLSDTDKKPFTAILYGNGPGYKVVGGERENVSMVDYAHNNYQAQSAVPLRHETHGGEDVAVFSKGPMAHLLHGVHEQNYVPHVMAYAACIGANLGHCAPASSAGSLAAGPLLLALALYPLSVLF
# [6] = molecular target: T5, Mannose-6-phosphate isomerase (Homo sapiens, UniProt P34949); assay: MPI enzyme activity inhibition – biochemical, fluorescence intensity, coupled assay, primary screen (AID 1209)
# T5 sequence (P34949 whole entry): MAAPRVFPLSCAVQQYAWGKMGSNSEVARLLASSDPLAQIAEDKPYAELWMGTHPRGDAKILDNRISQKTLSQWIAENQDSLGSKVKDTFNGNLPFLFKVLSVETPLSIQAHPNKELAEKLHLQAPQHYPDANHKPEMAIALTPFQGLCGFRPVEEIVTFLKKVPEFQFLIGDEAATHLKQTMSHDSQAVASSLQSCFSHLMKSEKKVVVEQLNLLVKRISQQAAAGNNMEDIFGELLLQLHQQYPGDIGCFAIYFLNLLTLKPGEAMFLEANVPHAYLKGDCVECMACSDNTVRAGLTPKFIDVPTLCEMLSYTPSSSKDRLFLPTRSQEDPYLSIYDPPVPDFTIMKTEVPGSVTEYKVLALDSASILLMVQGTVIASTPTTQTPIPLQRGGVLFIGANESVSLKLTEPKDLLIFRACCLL
# [7] = SNU-C1 cell viability reduction, dose response, CellTiter-Glo luminescence (AID 1117323); format: functional, cell-based
# [8] = DRD fibroblast viability loss – cell-based, non-viral oncogenic, luminescence, dose response (AID 1934); format: functional; settings: Homo sapiens
# BJ = assay: cells; format: functional, cell-based; settings: Homo sapiens
# Chain of Serine/threonine-protein phosphatase PP1-alpha catalytic subunit (P62136 whole entry): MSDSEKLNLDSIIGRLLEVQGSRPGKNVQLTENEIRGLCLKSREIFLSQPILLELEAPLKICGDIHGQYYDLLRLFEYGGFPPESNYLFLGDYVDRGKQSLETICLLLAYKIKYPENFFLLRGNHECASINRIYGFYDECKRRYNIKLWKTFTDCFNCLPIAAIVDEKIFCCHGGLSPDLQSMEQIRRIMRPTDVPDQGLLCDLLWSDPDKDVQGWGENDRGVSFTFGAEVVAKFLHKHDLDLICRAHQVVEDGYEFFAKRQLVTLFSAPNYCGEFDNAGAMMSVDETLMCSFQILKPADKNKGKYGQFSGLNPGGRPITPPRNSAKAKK
# Chain of Serine/threonine-protein phosphatase (Q9BPW0 whole entry): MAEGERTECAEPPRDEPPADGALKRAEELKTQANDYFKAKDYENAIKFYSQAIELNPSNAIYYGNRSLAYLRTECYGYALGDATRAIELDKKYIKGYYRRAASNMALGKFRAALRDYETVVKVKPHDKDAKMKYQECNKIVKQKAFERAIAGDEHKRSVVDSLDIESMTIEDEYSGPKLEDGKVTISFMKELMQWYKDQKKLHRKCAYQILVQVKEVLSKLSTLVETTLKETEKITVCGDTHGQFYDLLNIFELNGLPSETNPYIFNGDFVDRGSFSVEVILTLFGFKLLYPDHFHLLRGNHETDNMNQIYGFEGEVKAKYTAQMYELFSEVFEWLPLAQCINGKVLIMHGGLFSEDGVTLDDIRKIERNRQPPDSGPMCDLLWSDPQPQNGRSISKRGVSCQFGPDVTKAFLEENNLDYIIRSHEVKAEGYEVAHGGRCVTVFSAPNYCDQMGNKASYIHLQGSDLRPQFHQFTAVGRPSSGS
smiles,measurement,setting,value
CCCOc1cc2c(C#N)c(N3CCCC3)nc(N)c2c(N)n1,IC50,[1],> 67 µM (not active)
same,IC50,[2],3.96 µM (active)
same,IC50,[3],9.93 µM (active)
same,IC50,[4],4.32 µM (active)
Oc1ccc(/C=N/Nc2cc(N3CCCC3)nc(N3CCCC3)n2)cc1O,IC50,Caspase-3,> 99 µM (inactive)
same,IC50,[5],> 100 µM (inactive)
same,IC50,[6],> 50 µM (not active)
Cc1cc2nc3ccc(N(C)C)cc3[s+]c2cc1N [TOLONIUM CHLORIDE],IC50,[7],5.56 µM (inactive)
same,EC50,[8],8.46 µM (inconclusive)
same,EC50,BJ,7.39 µM (active)
